Consider one substance from patent publication US11291684B2, “Treatment of glaucoma” (TX MEDIC AB, priority 2017, dated 2022).

Type in all cases: in vivo, Sprague Dawley rats
For assay [1], the system named is trabecular meshwork (TM) scarring. Put plainly: Trabecular meshwork scarring: laminin and fibronectin immunohistochemistry in the angle. The settings on record: rat TGF-β glaucoma model, day 28, vs saline. From the text: Measured End-Points • IOP twice weekly throughout study from day 0 to day 28; • Immunohistochemistry for counting RGC that are immunoreactive for brain-specific homeobox/POU domain protein 3A (Brn3a) at day 28 (RGC survival); • Immunohistochemistry for laminin and fibronectin to evaluate scarring in the trabecular meshwork at day 28 in Groups 1 and 2; • Anterior segment and OCT imaging at day 28 to examine the angle and the thickness of the retinal nerve fiber layer comprising RGC axons; and • Body weight at day 28. […]
After immunofluorescence staining, sections were viewed on a Zeiss Axioplan 2 epi-fluorescent microscope (Carl Zeiss Ltd) and images captured using the same exposure times for each antibody using a Zeiss AxioCam HRc. IHC was quantified according to the methods previously described. Briefly, the region of interest used for quantitation of TM fibrosis was defined by a quadrant of the same prescribed size for all eyes/treatments within the TM, and ECM deposition was quantified within this defined quadrant of the TM and the % immunofluorescent pixels above a standardized background threshold calculated using ImageJ software (National Institutes of Health, USA). […] Images were assigned randomized numbers to ensure blinding of treatment groups during quantification by the assessor.

In the next assay the test system is glaucomatous eyes. Briefly: Intraocular pressure in TGF-β-induced glaucoma model (rebound tonometer). As to conditions: rat, 15 mg/kg daily s.c. from day 14. From the text: Raised IOP was induced by twice weekly intracameral injections of the inflammatory cytokine TGF-β over the entire time period of 28 days. This induced scarring of the trabecular meshwork (TM) drainage portals by day 14 with associated raised IOP. Daily subcutaneous dextran sulfate/saline treatments commenced at day 14.
(§1) Glaucoma was induced in adult male Sprague Dawley rats by repeat twice weekly intracameral (IC) injections of transforming growth factor-β (TGF-β) to increase intraocular pressure (IOP). Sustained increases in IOP (after two weeks) leads to death of retinal ganglion cells (30-40%). Dextran sulfate (Tikomed AB, Sweden, WO 2016/076780) was administered at 15 mg/kg by daily subcutaneous injection from […] to assess RGC protection compared to controls.
Group 1 n=12 rats; 24 eyes IOP+IC TGF-β (twice weekly for 28 days) between day 0 and day 28+ daily subcutaneous administration of dextran sulfate from day 14 to day 28.
Sixteen 8 to 10 week-old male 175-200 g Sprague Dawley rats (Charles River, Kent, UK), housed with free access to food and water under a 12 h dark/light cycle, were used for these experiments. Surgery was performed at the Biomedical Services Unit at the University of Birmingham in accordance with the Home Office guidelines set out in the 1986 Animal Act (UK) and the ARVO Statement for the Use of Animals in Ophthalmic and Vision Research. […] The post-operative welfare of all rats was monitored closely. […]
Using an iCare Tonolab rebound tonometer (Icare, Helsinki, Finland), IOP was recorded bi-weekly between 9-11 am for the duration of each experiment to avoid confounding the readings with circadian variability. Immediately after induction of anesthesia with 5% isoflurane, six rebound measurements were taken with the tonometer from the central cornea on each measurement occasion to give an overall average IOP measurement (mmHg) and all graphical data points represent the mean±SEM of 3 readings (of 6 rebounds each) taken sequentially to ensure accurate measurements.

Assay [2] concerns retinal nerve fiber layer (RNFL). Put plainly: OCT analysis of retinal nerve fiber layer in TGF-β-induced glaucoma model. The settings on record: rat TGF-β glaucoma model; day 28. The method, then: as §1
Measured End-Points • IOP twice weekly throughout study from day 0 to day 28; • Immunohistochemistry for counting RGC that are immunoreactive for brain-specific homeobox/POU domain protein 3A (Brn3a) at day 28 (RGC survival); • Immunohistochemistry for laminin and fibronectin to evaluate scarring in the trabecular meshwork at day 28 in Groups 1 and 2; • Anterior segment and OCT imaging at day 28 to examine the angle and the thickness of the retinal nerve fiber layer comprising RGC axons; and • Body weight at day 28.
Optical coherence tomography allows in vivo measuring of retinal thickness with RNFL being a surrogate measure of RGC density. OCT retinal nerve fiber layer analysis was performed at day 28 on all rats while under inhalation anesthesia using a Spectralis HRA3 confocal scanning laser ophthalmoscope (Heidelberg Engineering). […] In-built software was used to segment the images and quantify the RNFL thickness.

Take dextran sulfate: in assay [1] (P<0.001), the “levels of immunoreactive laminin in the angle” value is reported as “significantly reduced”. Besides, in assay [1] (P<0.01), the “levels of immunoreactive fibronectin in the angle” value was “significantly reduced”. Further, the “IOP compared to controls” value in the assay on glaucomatous eyes (IC TGF-β twice weekly, day 24, vs saline) is “significantly lower (P<0.001) and normalized”. In the assay on glaucomatous eyes (IC TGF-β twice weekly, day 28 (end of experiment), vs saline), the “IOP compared to control group” value is “remained significantly lower”. Also, in the assay with glaucomatous eyes (IC TGF-β), the “time of treatment after which elevated IOP started to reduce” value is reported as 7 days. For the same substance, the “RNFL (OCT) compared to saline treatment” value in assay [2] is listed as “preserved”.
